These results are taken from PubChem BioAssay AID652265 (Sanford-Burnham Center for Chemical Genomics, 2013).

The structures appear in SMILES notation. Activity calls are given as the source filed them.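 Rule for the calls: active = compounds whose half-maximal inhibitory concentration in the worm GFP to RFP ratio test is 5 micromolar or lower; inactive = the rest.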

In this assay the test system is C. elegans VP596 Pgst-4::GFP/RFP ratio, acrylamide, 24 h. Nature of the assay: SKN-1 inhibitor analog confirmation in worms, SAR follow-up, whole organism, GFP/RFP fluorescence ratio, round 2 (AID 652265).
As a reminder, the IC50 is the point on the concentration scale where inhibition reaches its midpoint. Turning to `CCOc1cc(CN2CCOCC2)cc(Cl)c1OCc1ccc(F)cc1`, the IC50 is 8890 nM (inactive).

Consider `C#CCNCc1cc(Cl)c(OCc2ccc(Cl)cc2)c(OCC)c1`, for which the IC50 was 8140 nM (inactive). Regarding `CCOc1cc(CN2CCCC2)cc(Cl)c1OCc1ccc(Cl)cc1`, the IC50 is 3960 nM.

Regarding `CCOc1cc(CNC2CC2)cc(Cl)c1OCc1ccc(Br)cc1`, the IC50 is 227 nM. `CCOc1cc(CN(C)C2CCCC2)cc(Cl)c1OCc1ccc(Cl)cc1`: the IC50 is 423 nM.

For the molecule `Clc1ccc(COc2c(Cl)cc(CNC3CCCC3)cc2Cl)cc1`, the half-inhibitory concentration (IC50) is 928 nM. As for `CCOc1cc(CN2CCN(C)CC2)cc(Cl)c1OCc1ccc(F)cc1`, the IC50 was 6010 nM (inactive). The same measure for `CCOc1cc(CNC2CCCC2)cc(Cl)c1OCc1ccc(C#N)cc1`: 400 nM.

As for `C=CCNCc1cc(Cl)c(OCc2ccc(Cl)cc2)c(OCC)c1`, the IC50 is 12300 nM (inactive). For the molecule `CCOc1cc(CN2CCCC2)cc(Cl)c1OCc1ccc(F)cc1`, the IC50 is 21400 nM (inactive). For the molecule `CCOc1cc(CN2CCCCC2)cc(Cl)c1OCc1ccc(F)cc1`, the IC50 was 432 nM. The same measure for `COc1cc(CNC2CCCC2)cc(F)c1OCc1ccc(Cl)cc1`: 1220 nM; for `CCOc1cc(CNC2CC2)cc(Cl)c1OCc1ccc(C#N)cc1`: 1560 nM; for `CCCNCc1cc(Cl)c(OCc2ccc(Cl)cc2)c(OCC)c1`: 8680 nM (inactive). `CCOc1cc(CN2CCN(C)CC2)cc(Cl)c1OCc1ccc(Cl)cc1`: the IC50 was 3420 nM. The same measure for `Cc1cc(CNC2CCCC2)cc(C)c1OCc1ccc(Cl)cc1`: 1140 nM; for `CCOc1cc(CNC2CC2)cc(Cl)c1OCc1ccc(Cl)cc1F`: 516 nM; for `CCOc1cc(CNC2CCCC2)cc(Cl)c1OCc1ccc(Br)cc1`: 425 nM. In the case of `CCOc1cc(CN2CCCCC2)cc(Cl)c1OCc1ccc(Cl)cc1`, the IC50 was 495 nM.

Consider `CCOc1cc(CNC2CCCC2)cc(Cl)c1OCc1ccc(Cl)cc1F`, for which the IC50 was 863 nM. The same measure for `COc1cc(CNC2CCCC2)cc(Br)c1OCc1ccc(Cl)cc1`: 771 nM; for `CCOc1cc(CN(C(C)=O)C2CCCC2)cc(Cl)c1OCc1ccc(Cl)cc1`: > 64000 nM (inactive); for `CCOc1cc(CN2CCOCC2)cc(Cl)c1OCc1ccc(Cl)cc1`: 1740 nM.

On to `CCOc1cc(CNCC2CC2)cc(Cl)c1OCc1ccc(Cl)cc1`, for which the IC50 is 6730 nM (inactive). The same measure for `COc1cc(CNC2CCCC2)cc(Cl)c1OCc1ccc(Cl)cc1`: 329 nM; for `CCOc1cc(CNC)cc(Cl)c1OCc1ccc(Cl)cc1`: > 64000 nM (inactive); for `CCOc1cc(CNC2CC2)cc(Cl)c1OCc1ccc(Cl)cc1`: 512 nM.
